From patent publication US20040002460A1, “Spheron components useful in determining compounds capable of treating symptoms of Alzheimer's disease, and treatments and animal models produced therefrom” (priority 2002, published 2004)

Assay: in vitro
Method: The spheron component peptides in phosphate buffered saline (PBS) were incubated alone and in combination into glioma cell cultures and neuroblastoma cell cultures. Controls of
Cryopreserved glioma and neuroblastoma cells were acquired from the American Type Culture Collection (ATCC), Virginia. Cells were thawed and diluted in suspension media and centrifuged at 700 rpm for 7 minutes at 4 C. Cell pellets then were resuspended in CACO-2 media and cultured in standard 75 or 175 cm^2 flasks at 37 C, 5% CO(2) until approximately confluent. The cells were then trypsinized and resuspended in CACO-2 media to achieve a final cell density of 1.5×10^5 cells/mL. 50 μL aliquots per sample were then added per well to 96 well plates.
For Experiment I, 50 μL of either PBS (phosphate buffered solution) (negative control), 100 μM tamoxifen in phosphate buffered saline PBS (positive control), or test article were added to each sample culture.
An MTT assay is a sensitive assay for the measurement of cell proliferation based upon the reduction of the tetrazolium salt 3,[4,5-dimetylthiazol-2-yl]-2,5-diphenyltetrazolium bromide (MTT). […] Plates were then agitated gently for 1 minute on a rotary shaker and the difference between emission absorbance of 570 nm and background absorbance of 650 nm was measured spectrophotometrically on an automated plate reader. […]

Work on `CC/C(=C(\c1ccccc1)c1ccc(OCCN(C)C)cc1)c1ccccc1` [Tamoxifen, tamoxifen] yielded a viability at 4 days, 100 µM of 63%.
